Our source for the IC50 values is patent publication US20090215778A1, “Alpha-substituted Arylmethyl Piperazine Pyrazolo [1,5-alpha]Pyrimidine Amide Derivatives” (priority 2007, published 2009).

One experiment relates to HIV-1, NL4-3 strain. As to the kind of experiment: Virus infection assay (virus entry and single-cycle infection). Format: cell-based. To be noted: Human immunodeficiency virus 1, NL43, TZM-b1, read-out: Nl4. Put shortly: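 TZM-b1 cells (CD4, CXCR4, CCR5; LTR-driven lacZ/luciferase reporters) were infected with HIV-1 NL4-3 (MOI 0.01) with 80 μg/mL DEAE-dextran in the presence of test compound, 4 h at 37 °C before adding complete medium. Infection was quantified one day post-infection as chemiluminescent β-galactosidase signal.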

Experiment [1] addresses T1, HIV Env six-helix bundle (6HB) structure (Human immunodeficiency virus type 1 group M subtype B, UniProt P04579).
T1 construct: H9 cells chronically infected with HIV-1 (H9/HIV-1RF); endogenous in cells; host or cells: H9 cells chronically infected with HIV-1 strain RF (Env is made from the virus in the infected cells, not by transfection)
As to the kind of experiment: Six-helix bundle (6HB) assay. Format: cell-based, HIV-1 (strain RF). In outline: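 Chronically HIV-1 RF-infected H9 cells (12-40 days post-infection), 2.5×10^5 per well, were preincubated with compound for 30 min at 37 °C. sCD4 at 1 μg/mL was added for 1 h to trigger Env changes. 6HB-specific rabbit serum (1 h, 37 °C) was then added, followed by PE anti-rabbit (45 min, 4 °C), with flow cytometric fluorescence read-out.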

T1 sequence (P04579 32-519): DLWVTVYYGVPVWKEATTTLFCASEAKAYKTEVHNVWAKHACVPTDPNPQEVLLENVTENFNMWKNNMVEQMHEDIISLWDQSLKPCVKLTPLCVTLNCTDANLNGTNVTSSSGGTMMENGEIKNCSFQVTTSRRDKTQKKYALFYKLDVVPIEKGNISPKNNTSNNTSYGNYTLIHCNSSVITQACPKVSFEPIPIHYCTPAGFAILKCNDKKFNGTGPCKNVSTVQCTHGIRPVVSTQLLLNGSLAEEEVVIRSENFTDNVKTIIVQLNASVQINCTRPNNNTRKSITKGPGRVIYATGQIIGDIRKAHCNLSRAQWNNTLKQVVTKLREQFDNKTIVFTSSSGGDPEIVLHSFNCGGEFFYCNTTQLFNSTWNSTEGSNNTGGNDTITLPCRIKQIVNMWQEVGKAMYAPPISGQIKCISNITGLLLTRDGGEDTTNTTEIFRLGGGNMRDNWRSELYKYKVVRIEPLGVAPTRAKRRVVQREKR
T1 sequence (P04579 520-865): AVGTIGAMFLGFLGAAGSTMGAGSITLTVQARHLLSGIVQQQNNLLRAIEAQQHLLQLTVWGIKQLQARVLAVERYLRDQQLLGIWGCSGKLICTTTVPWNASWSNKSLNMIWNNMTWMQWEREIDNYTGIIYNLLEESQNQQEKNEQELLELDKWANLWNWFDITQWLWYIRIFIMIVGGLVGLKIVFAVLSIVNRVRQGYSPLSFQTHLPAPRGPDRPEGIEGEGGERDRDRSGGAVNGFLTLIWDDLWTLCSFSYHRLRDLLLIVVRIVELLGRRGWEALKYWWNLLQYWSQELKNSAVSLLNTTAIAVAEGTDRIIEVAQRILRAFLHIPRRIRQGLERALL

Take `COc1ccc(-c2nc3c(C(=O)N4CCN([C@@H](CO)c5cccnc5OC)C[C@H]4C)cnn3c(C(F)(F)F)c2C)cc1` [methanone, [(2R)-4-[(1R)-2-hydroxy-1-(2-methoxy-3-pyridinyl)ethyl]-2-methyl-1-piperazinyl][5-(4-methoxyphenyl)-6-methyl-7-(trifluoromethyl)pyrazolo[1,5-α]pyrimidin-3-yl]-]: the IC50 in the experiment on HIV-1, NL4-3 strain was < 1 µM; in experiment [1] it was < 1 µM.
As for `COc1ccc(-c2nc3c(C(=O)N4CCN(C(CO)c5cccc(OC(F)(F)F)c5)C[C@H]4C)cnn3c(C(F)(F)F)c2C)cc1` (stereo partly drawn) [methanone, [(2R)-4-[2-hydroxy-1-[3-(trifluoromethoxy)phenyl]ethyl]-2-methyl-1-piperazinyl][5-(4-methoxyphenyl)-6-methyl-7-(trifluoromethyl)pyrazolo[1,5-α]pyrimidin-3-yl]-], the IC50 with HIV-1, NL4-3 strain was < 1 µM; in experiment [1], < 1 µM.
On to `COc1ccc(-c2nc3c(C(=O)N4CCN(C(CO)c5cccc(Cl)c5)C[C@H]4C)cnn3c(C(F)(F)F)c2C)cc1` (stereo partly drawn) [methanone, [(2R)-4-[1-(3-chlorophenyl)-2-hydroxyethyl]-2-methyl-1-piperazinyl][5-(4-methoxyphenyl)-6-methyl-7-(trifluoromethyl)pyrazolo[1,5-α]pyrimidin-3-yl]-], for which the IC50 is < 1 µM in the experiment with HIV-1, NL4-3 strain and < 1 µM in experiment [1].
Consider `COc1ccc(-c2nc3c(C(=O)N4CCN(C(CO)c5cc(C(C)=O)ccc5F)C[C@H]4C)cnn3c(C(F)(F)F)c2C)cc1` (stereo partly drawn) [ethanone, 1-[4-fluoro-3-[2-hydroxy-1-[(3R)-4-[[5-(4-methoxyphenyl)-6-methyl-7-(trifluoromethyl)pyrazolo[1,5-α]pyrimidin-3-yl]carbonyl]-3-methyl-1-piperazinyl]ethyl]phenyl]-], for which the IC50 is < 1 µM in the experiment with HIV-1, NL4-3 strain and < 1 µM in experiment [1].
